Data reported in ChEMBL document CHEMBL1134883, “Antimalarial activity of ferrocenyl chalcones” (Bioorg Med Chem Lett, 2002).

Tested on: Plasmodium falciparum
Test: Growth inhibition of chloroquine-resistant Plasmodium falciparum K1 by [3H]hypoxanthine uptake
Format: functional, organism-based

Row | Substance | IC50 [µM]
1 | 1-(2,4-Dimethoxyphenyl)-3-ferrocenyl-2-propen-1-one | 24.5
2 | 1-ferrocenyl-3-(4-Cyanophenyl)-2-propen-1-one | 26.5
3 | 1-ferrocenyl-3-(3-pyridinyl)-2-propen-1-one | 17
4 | 1-ferrocenyl-3-(2-Naphthalenyl)-2-propen-1-one | 73.5
5 | 1-ferrocenyl-3-(2,4-Dimethoxyphenyl)-2-propen-1-one | 18
6 | 1-(4-Methoxyphenyl)-3-ferrocenyl-2-propen-1-one | 410
7 | 1-ferrocenyl-3-(4-Fluorophenyl)-2-propen-1-one | 12.1
8 | 1-ferrocenyl-3-(4-Nitrophenyl)-2-propen-1-one | 5.1
9 | 1-(3-pyridyl)-3-ferrocenyl-2-propen-1-one | 4.6
10 | 1-(1-Naphthalenyl)-3-ferrocenyl-2-propen-1-one | 47.4
11 | 1-ferrocenyl-3-(phenyl)-2-propen-1-one | 19
12 | 1-ferrocenyl-3-(4-Hydroxyphenyl)-2-propen-1-one | 20.6
13 | 1-(2,4-Dihydroxyphenyl)-3-ferrocenyl-2-propen-1-one | 31.5
14 | 1-(phenyl)-3-ferrocenyl-2-propen-1-one | 175
15 | 1-ferrocenyl-3-(2,4-Difluorophenyl)-2-propen-1-one | 23.2
16 | 1-ferrocenyl-3-(4-Methylphenyl)-2-propen-1-one | 147

Row | Substance | IC50 [µM]
17 | 1-ferrocenyl-3-(4-Trifluoromethylphenyl)-2-propen-1-one | 58.4
18 | 1-(4-Ethoxyphenyl)-3-ferrocenyl-2-propen-1-one | 200
19 | 1-(2-Naphthalenyl)-3-ferrocenyl-2-propen-1-one | 21
20 | 1-ferrocenyl-3-(1-Naphthalenyl)-2-propen-1-one | 48.3
21 | 1-(4-Hydroxyphenyl)-3-ferrocenyl-2-propen-1-one | 36
22 | 1-ferrocenyl-3-(3-Chlorophenyl)-2-propen-1-one | 36.2
23 | 1-(4-Butoxyphenyl)-3-ferrocenyl-2-propen-1-one | 80
24 | 1-ferrocenyl-3-(4-Chlorophenyl)-2-propen-1-one | 14.5
25 | 1-ferrocenyl-3-(4-Methoxyphenyl)-2-propen-1-one | 17
26 | 1-ferrocenyl-3-(2,4-Dichlorophenyl)-2-propen-1-one | 29.4
27 | 1-(2-Hydroxyphenyl)-3-ferrocenyl-2-propen-1-one | 73.5
28 | 1-ferrocenyl-3-(4-Quinolinyl)-2-propen-1-one | 14
29 | 1-ferrocenyl-3-(3-Quinolinyl)-2-propen-1-one | 18.2
30 | 1-ferrocenyl-3-(2-Chlorophenyl)-2-propen-1-one | 42.4
31 | 1-(2,3,4-Trimethoxyphenyl)-3-ferrocenyl-2-propen-1-one | 22.5
